Where two headings read alike, the source gives them in different places.
Assays:
[1] = system: mononuclear cells of a bone marrow donor; assay: XTT-based proliferation assay, donor mononuclear cells ex vivo
Procedure: Bone marrow aspirate and peripheral blood samples from consented patients with acute leukemia as well as samples from healthy blood and bone marrow donors were collected in 5000 U heparin with the approval of the ethics committee of the Medical Faculties of the University of Tübingen or the University of Ulm. Mononuclear cells were isolated by Ficoll-Hypaque density gradient fractionation. Cells were cultured in DMEM medium, supplemented with 20% fetal bovine serum (GIBCO/Invitrogen, Darmstadt, Germany or Biochrom AG, Berlin, Germany), 1% penicillin G (10,000 units/mL), and streptomycin (10,000 μg/mg) and 2 mmol/L L-glutamine.

[2] = system: Ba/F3 KIT WT; assay: Inhibition of proliferation (XTT), isogenic Ba/F3 model; type: cell-based, murine; conditions: Mus musculus
Procedure: (§1) FLT3 S451F cDNA cloned into a pCMVneo plasmid vector [53] was generously provided by Dr. Fröhling, University of Ulm, Germany. KIT wildtype cDNA cloned into a pJP1563 plasmid vector was obtained from the DNASU Plasmid Repository at the Biodesign Institute of the Arizona State University (ASU). Lipofection transfection into the parental Ba/F3 cell line was performed to stably express KIT wildtype or mutant FLT3 S451F by double selection for neomycin (pCMVneo plasmid), blasticidin (pJP1563 plasmid) or […] (G418; all other plasmids) resistance and IL-3-independent growth. The Ba/F3 KIT wildtype cell line was cultured using recombinant human stem cell factor (SCF/KIT Ligand, R&D, Minneapolis, MN) as a growth supplement.

[3] = system: Ba/F3 KIT D816V; assay: as above; type: cell-based, murine; conditions: Mus musculus
[4] = system: MOLM14 cells (FLT3 ITD); assay: annexin V-based apoptosis assay, MOLM14; type: cell-based; conditions: Homo sapiens, MOLM-14, read-out: IC50 induction of apoptosis
Procedure: (§2) Translocation of phosphatidylserine from the inner to the outer leaflet of the plasma membrane as an early indicator of apoptosis was analyzed using an Annexin V-based assay (Immunotech, Marseilles, France) and a FACScalibur® flow cytometer loaded with CellQuest® analysis software (BD, Heidelberg, Germany).

[5] = system: Ba/F3 BCR/ABL1; assay: Inhibition of proliferation (XTT), isogenic Ba/F3 model; type: cell-based, murine; conditions: Mus musculus
[6] = system: Ba/F3 FLT3 ITD; assay: Induction of apoptosis, isogenic Ba/F3 model; type: cell-based, murine
Procedure: as §2

[7] = system: Ba/F3 FLT3 N841H; assay: Induction of apoptosis, isogenic Ba/F3 model; type: cell-based, murine
Procedure: as §2

[8] = system: Ba/F3 FLT3 WT; assay: Induction of apoptosis, isogenic Ba/F3 model; type: cell-based, murine
Procedure: as §2

[9] = system: Ba/F3 FLT3 D835Y; assay: Induction of apoptosis, isogenic Ba/F3 model; type: cell-based, murine
Procedure: as §2

[10] = system: Ba/F3 KIT D816Y; assay: Induction of apoptosis, isogenic Ba/F3 model; type: cell-based, murine
Procedure: as §2

[11] = system: Ba/F3 Parental (w/ IL3); assay: Induction of apoptosis, isogenic Ba/F3 model; type: cell-based, murine
Procedure: as §2

[12] = system: Ba/F3 KIT D816F; assay: Induction of apoptosis, isogenic Ba/F3 model; type: cell-based, murine
Procedure: as §2

[13] = system: native mononuclear cells derived from bone marrow donors; assay: Annexin V/PI apoptosis assay, donor mononuclear cells ex vivo; type: cell-based, human; conditions: Homo sapiens
Procedure: However, this observation will need prospective verification on a larger patient cohort.
as §2

[14] = system: native leukemia blasts; assay: Annexin V/PI apoptosis assay, native leukemia blasts treated ex vivo; type: cell-based; conditions: Homo sapiens
Procedure: as §2

[15] = system: Ba/F3 FLT3 K663Q; assay: Inhibition of proliferation (XTT), isogenic Ba/F3 model; type: cell-based, murine; conditions: Mus musculus
[16] = system: K562 cells (BCR-ABL1); assay: annexin V-based apoptosis assay, K562; type: cell-based; conditions: Homo sapiens, read-out: IC50 induction of apoptosis
Procedure: as §2

[17] = system: Ba/F3 KIT WT; assay: Induction of apoptosis, isogenic Ba/F3 model; type: cell-based, murine
Procedure: as §1, §2

[18] = system: Ba/F3 FLT3 S451F; assay: Induction of apoptosis, isogenic Ba/F3 model; type: cell-based, murine
Procedure: as §1, §2

[19] = system: HMC1.1, HMC1.2, GIST882 and GIST48 cells; assay: induction of apoptosis in imatinib-resistance cell models; type: cell-based, human; conditions: HMC1.1/HMC1.2 and GIST882/GIST48; irrespective of the sensitivity profile towards TKI
Excerpt: We tested this theory using two cell models comparing primary TK-sensitive mutations with secondary TK-insensitive mutations: The first model consists of a mast cell leukemia cell line (HMC1.1), which harbors an imatinib-sensitive KIT V560G mutation – and a derivative sister cell line (HMC1.2), which is characterized by a secondary activation loop KIT D816V mutation, rendering the cells insensitive towards imatinib. Additionally we tested the GIST solid tumor cell line GIST882 (harboring an imatinib-sensitive KIT K642E mutation) with a second cell line, which was established from a patient with relapsing GIST under imatinib therapy (GIST48). This cell line harbors a primary homozygous juxtamembrane KIT mutation (V560D) plus a secondary heterozygous imatinib-insensitive activation loop mutation (D820A).
Supplementary file 1476-4598-12-46-S3.tiff: Additional file 3: Figure S2 PI3K/MTOR inhibition in imatinib-resistance models. Dual PI3K/MTOR inhibition is effective in tyrosine kinase inhibitor-resistant cell models. […] Dose-effect plots are provided indicating sensitivity profiles of both dual PI3K/MTOR inhibitors that are independent of the sensitivity patterns for imatinib. Linear regression analyses to calculate IC50 estimates are provided for all cell lines. […]

[20] = system: Ba/F3 KIT D816Y; assay: Inhibition of proliferation (XTT), isogenic Ba/F3 model; type: cell-based, murine; conditions: Mus musculus
[21] = BaF3, 10 nM, read-out: Inhibition of proliferation At 10 nM (% alive)
[22] = BaF3, 100 nM, read-out: Inhibition of proliferation At 100 nM (% alive)
[23] = Mus musculus, BaF3, not reached = > 5 000 nM

`COc1ccc(-c2ccc3ncc4c(c3c2)n(-c2ccc(N3CCNCC3)c(C(F)(F)F)c2)c(=O)n4C)cn1` [NVP-BGT226] gave an IC50 ([1]; Homo sapiens, read-out: Proliferation IC50, Pt. Nr. 552 (donor), bone marrow donor, ex vivo) greater than 1000 nM, an IC50 ([1]; read-out: Proliferation IC50, Pt. Nr. 552 (donor), bone marrow donor, ex vivo, listed as BFT226) of 1080 nM and an IC50 ([2]; BaF3) of 6 nM. The viability at 0.01 µM [2, 21] was 24%, the viability at 0.1 µM [2, 22] was 13% and the IC50 ([3]; BaF3) was 153 nM. It also gave a viability at 0.01 µM [3, 21] of 110%, a viability at 0.1 µM [3, 22] of 47% and an IC50 [4] of 638 nM. For the same compound, the IC50 ([5]; BaF3) was 183 nM, the viability at 0.01 µM [5, 21] was 73% and the viability at 0.1 µM [5, 22] was 52%. For the same compound, the “Induction of apoptosis At 1000 nM (% apopt.)” value ([6]; 1000 nM) was 38%, the “Induction of apoptosis At 5000 nM (% apopt.)” value ([6]; 5000 nM) was 98% and the IC50 ([6]; Mus musculus, not reached = > 5 000 nM) was 1080 nM. For the same compound, the “Induction of apoptosis At 1000 nM (% apopt.)” value ([7]; 1000 nM) was 18%, the “Induction of apoptosis At 5000 nM (% apopt.)” value ([7]; 5000 nM) was 99% and the IC50 [7, 23] was 1210 nM. The “Induction of apoptosis At 1000 nM (% apopt.)” value ([8]; 1000 nM) was 41%, the “Induction of apoptosis At 5000 nM (% apopt.)” value ([8]; 5000 nM) was 99% and the IC50 ([8]; Mus musculus, BaF3) was 345 nM. The “Induction of apoptosis At 1000 nM (% apopt.)” value ([9]; 1000 nM) was 33%, the “Induction of apoptosis At 5000 nM (% apopt.)” value ([9]; 5000 nM) was 98% and the IC50 [9, 23] was 1070 nM. For the same compound, the “Induction of apoptosis At 1000 nM (% apopt.)” value ([10]; 1000 nM) was 89%, the “Induction of apoptosis At 5000 nM (% apopt.)” value ([10]; 5000 nM) was 96% and the IC50 ([10]; Mus musculus, BaF3) was 118 nM. The “Induction of apoptosis At 1000 nM (% apopt.)” value ([11]; 1000 nM) was 7%, the “Induction of apoptosis At 5000 nM (% apopt.)” value ([11]; 5000 nM) was 99% and the IC50 [11, 23] was 1820 nM. The “Induction of apoptosis At 1000 nM (% apopt.)” value ([12]; 1000 nM) was 87%, the “Induction of apoptosis At 5000 nM (% apopt.)” value ([12]; 5000 nM) was 89% and the IC50 ([12]; Mus musculus, BaF3) was 258 nM. The IC50 ([13]; Pt. Nr. 538 (donor)) was 1780 nM, the IC50 ([13]; Pt. Nr. 554 (donor)) was 3810 nM and the IC50 ([14]; Pt. Nr. 290, ex vivo) was 4 nM. It also gave an IC50 ([14]; Pt. Nr. 368, ex vivo) of 149 nM, an IC50 ([14]; Pt. Nr. 527, ex vivo) of 12 nM and an IC50 ([14]; Pt. Nr. 528, ex vivo) of 12 nM. It also gave an IC50 ([14]; Pt. Nr. 532, ex vivo) of 25 nM, an IC50 ([15]; BaF3) of 277 nM and a viability at 0.01 µM [15, 21] of 79%. The viability at 0.1 µM [15, 22] was 52%, the IC50 [16] was 354 nM and the “Induction of apoptosis At 1000 nM (% apopt.)” value ([17]; 1000 nM) was 48%. For the same compound, the “Induction of apoptosis At 5000 nM (% apopt.)” value ([17]; 5000 nM) was 97%, the IC50 ([17]; Mus musculus, BaF3) was 463 nM and the “Induction of apoptosis At 1000 nM (% apopt.)” value ([18]; 1000 nM) was 93%. The “Induction of apoptosis At 5000 nM (% apopt.)” value ([18]; 5000 nM) was 99%, the IC50 ([18]; Mus musculus, BaF3) was 125 nM and the induction of apoptosis [19] was “potently induced apoptosis”. It also gave an IC50 ([20]; BaF3) of 65 nM, a viability at 0.01 µM [20, 21] of 112% and a viability at 0.1 µM [20, 22] of 26%.

From publication PMC3689638, “Cell cycle-dependent activity of the novel dual PI3K-MTORC1/2 inhibitor NVP-BGT226 in acute leukemia” (Molecular Cancer, 2013)
